US20250170140A1, “PHARMACEUTICAL COMPOSITION FOR PREVENTING OR TREATING CANCER COMPRISING CARNITINE ACYLCARNITINE CARRIER INHIBITOR AND PEROXISOMAL BETA OXIDATION INHIBITOR” (priority 2021, published 2025)
Like-named read-outs stand apart in the source and are kept apart here.

Assays:
Type in all cases: cell-based
MIA PaCa-2 = test: SRB assay, cancer cell growth, pancreatic cancer cell line MIA PaCa-2
Description: (§1) As a comparison, omeprazole (KN510) and trimetazidine (KN713), a 3-ketoacyl CoA thiolase inhibitor, were co-treated. […] After cell inoculation, 96-well cell culture plates were incubated for 24 hours before the addition of experimental drugs. […] The cells were then incubated in a CO2 incubator for 48 hours, after which the assay was terminated by the addition of cold TCA. Cells were fixed in situ by gently adding 50 μl of cold 50% (w/v) TCA (final concentration: 10% TCA) and incubated at 4° C. for 60 min. The supernatant was discarded, and the plate was washed five times with distilled water and air dried. Sulforhodamine B (SRB) solution (100 μl) of 0.4% (w/v) in 1% acetic acid was added to each well, and the plate was left at room temperature for 10 min. After staining, unbound dye was removed by washing five times with 1% acetic acid, and the plate was air-dried. The bound dye was then solubilized with 10 mM trizma base, and the absorbance was recorded at 515 nm using an automated plate reader. […] The predicted synergistic activity of a combination of the present invention can be calculated using the Colby Equation in Equation 1 (S.R. Colby, Weeds, 1967, pp. 15, 20-22): α and β are the measured anti-cancer activity of each compound alone, and E is the predicted anti-cancer activity of a mixture of α and β as a prediction. In the present invention, the actual measure of anti-cancer activity of the combination treatment was the inhibition rate of cancer cell growth (%), and the predicted value (E) of the combination treatment was measured by substituting it into the above Colby Equation.

MDA-MB-231 cells = test: SRB assay, breast cancer cell line MDA-MB-231
Description: as §1, with “20-22):” for “20-22): α and β are the measured anti-cancer activity of each compound alone, and E is the predicted anti-cancer activity of a mixture of α and β as a prediction.”

SK-MEL-5 = test: SRB assay, melanoma cell line SK-MEL-5
Description: as §1, with “20-22):” for “20-22): α and β are the measured anti-cancer activity of each compound alone, and E is the predicted anti-cancer activity of a mixture of α and β as a prediction.”

SF295 cells = test: SRB assay, glioblastoma cell line SF295
Description: as §1, with “20-22):” for “20-22): α and β are the measured anti-cancer activity of each compound alone, and E is the predicted anti-cancer activity of a mixture of α and β as a prediction.”

PANC-1 cells = test: SRB assay, pancreatic cancer cell line PANC-1
Description: as §1, with “20-22):” for “20-22): α and β are the measured anti-cancer activity of each compound alone, and E is the predicted anti-cancer activity of a mixture of α and β as a prediction.”

U251 cells = test: SRB assay, glioblastoma cell line U251
Description: as §1, with “20-22):” for “20-22): α and β are the measured anti-cancer activity of each compound alone, and E is the predicted anti-cancer activity of a mixture of α and β as a prediction.”

AGS cells = test: SRB assay, stomach cancer cell line AGS
Description: as §1, with “20-22):” for “20-22): α and β are the measured anti-cancer activity of each compound alone, and E is the predicted anti-cancer activity of a mixture of α and β as a prediction.”

DU-145 cells = test: SRB assay, prostate cancer cells DU-145
Description: as §1, with “20-22):” for “20-22): α and β are the measured anti-cancer activity of each compound alone, and E is the predicted anti-cancer activity of a mixture of α and β as a prediction.”

PC-3 cells = test: SRB assay, prostate cancer cells PC-3
Description: as §1, with “20-22):” for “20-22): α and β are the measured anti-cancer activity of each compound alone, and E is the predicted anti-cancer activity of a mixture of α and β as a prediction.”

[1] = Homo sapiens, KN510 100 μM, read-out: Inhibition rate of cancer cell growth (%) (Actual value)
[2] = Homo sapiens, KN510 200 μM, read-out: Inhibition rate of cancer cell growth (%) (Actual value)

Work on COc1ccc2[nH]c([S+]([O-])Cc3ncc(C)c(OC)c3C)nc2c1 (centres unmarked) [KN510, omeprazole] yielded an inhibition at 100 µM (MIA PaCa-2; Homo sapiens, MIA PaCa-2, MIA PaCa-2 (Example 11), KN510 100 μM, read-out: Inhibition rate of cancer cell growth (%) (Actual value)) of 30.2%, an inhibition at 200 µM (MIA PaCa-2; Homo sapiens, MIA PaCa-2, MIA PaCa-2 (Example 11), KN510 200 μM, read-out: Inhibition rate of cancer cell growth (%) (Actual value)) of 78.2% and an inhibition at 200 µM (MIA PaCa-2; Homo sapiens, MIA PaCa-2, MIA PaCa-2, Example 1-3, Table 4, KN510 200 μM, read-out: Inhibition rate of cancer cell growth (%) (Actual value)) of 74.1%. The GI50 (MIA PaCa-2; Homo sapiens, MIA PaCa-2, 48 hours, read-out: GI50 (Half maximal growth inhibition concentration)) was 117 µM, the “Cancer cell growth rate Average (%)” value (MIA PaCa-2; MIA PaCa-2 (Example 11), KN510 100 μM) was 69.78% and the “Cancer cell growth rate Average (%)” value (MIA PaCa-2; MIA PaCa-2 (Example 11), KN510 200 μM) was 21.75%. The “Cancer cell growth rate Average (%)” value (MIA PaCa-2; MIA PaCa-2, Conc. 10^−3M, Table 1) was −17.07%, the “Cancer cell growth rate Average (%)” value (MIA PaCa-2; MIA PaCa-2, Conc. 10^−4M, Table 1) was 68.78% and the “Cancer cell growth rate Average (%)” value (MIA PaCa-2; MIA PaCa-2, Conc. 10^−5M, Table 1) was 94.56%. The “Cancer cell growth rate Average (%)” value (MIA PaCa-2; MIA PaCa-2, Conc. 10^−6M, Table 1) was 93.66%, the “Cancer cell growth rate Average (%)” value (MIA PaCa-2; MIA PaCa-2, Conc. 10^−7M, Table 1) was 97.84% and the “Cancer cell growth rate Average (%)” value (MIA PaCa-2; MIA PaCa-2, Conc. 10^−8M, Table 1) was 101.17%. The “Cancer cell growth rate Average (%)” value (MIA PaCa-2; MIA PaCa-2, Example 1-2, Table 2, KN510 200 μM) was 25.89%, the “Cancer cell growth rate Average (%)” value (MIA PaCa-2; MIA PaCa-2, comparative example, Table 3, KN510 100 μM) was 69.73% and the “Cancer cell growth rate Average (%)” value (MIA PaCa-2; MIA PaCa-2, comparative example, Table 3, KN510 200 μM) was 35.32%. For the same compound, the inhibition at 100 µM (MDA-MB-231 cells; [1]) was 29.7%, the inhibition at 200 µM (MDA-MB-231 cells; [2]) was 71.9% and the “Cancer cell growth rate Average (%)” value (MDA-MB-231 cells; KN510 100 μM) was 70.29%. The “Cancer cell growth rate Average (%)” value (MDA-MB-231 cells; KN510 200 μM) was 28.13%, the inhibition at 100 µM (SK-MEL-5; [1]) was 34.6% and the inhibition at 200 µM (SK-MEL-5; [2]) was 53.9%. The “Cancer cell growth rate Average (%)” value (SK-MEL-5; KN510 100 μM) was 65.42%, the “Cancer cell growth rate Average (%)” value (SK-MEL-5; KN510 200 μM) was 46.11% and the inhibition at 100 µM (SF295 cells; Homo sapiens, SF-295, KN510 100 μM, read-out: Inhibition rate of cancer cell growth (%) (Actual value)) was 32%. The inhibition at 200 µM (SF295 cells; Homo sapiens, SF-295, KN510 200 μM, read-out: Inhibition rate of cancer cell growth (%) (Actual value)) was 63.5%, the “Cancer cell growth rate Average (%)” value (SF295 cells; KN510 100 μM) was 67.98% and the “Cancer cell growth rate Average (%)” value (SF295 cells; KN510 200 μM) was 36.53%. For the same compound, the inhibition at 100 µM (PANC-1 cells; [1]) was 55.5%, the inhibition at 200 µM (PANC-1 cells; [2]) was 89% and the “Cancer cell growth rate Average (%)” value (PANC-1 cells; KN510 100 μM) was 44.47%. The “Cancer cell growth rate Average (%)” value (PANC-1 cells; KN510 200 μM) was 10.96%, the inhibition at 100 µM (U251 cells; Homo sapiens, U-251, KN510 100 μM, read-out: Inhibition rate of cancer cell growth (%) (Actual value)) was 26.5% and the inhibition at 200 µM (U251 cells; Homo sapiens, U-251, KN510 200 μM, read-out: Inhibition rate of cancer cell growth (%) (Actual value)) was 44.9%. The “Cancer cell growth rate Average (%)” value (U251 cells; KN510 100 μM) was 73.51%, the “Cancer cell growth rate Average (%)” value (U251 cells; KN510 200 μM) was 55.11% and the inhibition at 100 µM (AGS cells; [1]) was 39.6%. The inhibition at 200 µM (AGS cells; [2]) was 69.5%, the “Cancer cell growth rate Average (%)” value (AGS cells; KN510 100 μM) was 60.39% and the “Cancer cell growth rate Average (%)” value (AGS cells; KN510 200 μM) was 30.51%. The inhibition at 100 µM (DU-145 cells; [1]) was 50.4%, the inhibition at 200 µM (DU-145 cells; [2]) was 62.9% and the “Cancer cell growth rate Average (%)” value (DU-145 cells; KN510 100 μM) was 49.59%. For the same compound, the “Cancer cell growth rate Average (%)” value (DU-145 cells; KN510 200 μM) was 37.08%, the inhibition at 100 µM (PC-3 cells; [1]) was 46.6% and the inhibition at 200 µM (PC-3 cells; [2]) was 66.2%. For the same compound, the “Cancer cell growth rate Average (%)” value (PC-3 cells; KN510 100 μM) was 53.42% and the “Cancer cell growth rate Average (%)” value (PC-3 cells; KN510 200 μM) was 33.81%.
